Structures can show the parent of a compound that is named as a salt.

The test system of data set [1] is Male Wistar rats. Briefly: Determination of the diuresis (urine volume over 6 hours after oral dosing). In kind it is in vivo, rat. Here is the method: Procedures were approved by the Institutional Animal Care and Use Committee of NitroMed, Inc. Male Wistar rats (180-200 g) were purchased from Charles River Laboratories (Kingston, N.Y. or Raleigh, N.C.) and allowed to acclimate in the facility for a period of at least 72 h. Rats were randomly housed 2-3 per cage in a light-controlled room with a 12 hour light/dark cycle and allowed ad libitum access to food and water.
Prior to the experiment, each rat was placed in a metabolic cage and allowed to acclimate for a period of 24-48 hours with food and water ad libitum. During this acclimation period, rats received mash food instead of pellet food to prevent contamination of the urine samples. All rats were fasted for 18 hours prior to experimentation. In addition, water was removed 90 minutes prior to oral dosing with test compound or vehicle.
The test compounds were prepared immediately prior to dosing in 0.5% Methocel (F4M Premium Hydroxypropyl Methylcellulose, lot # PF12012N12; Dow Chemical Company, USA) and homogenized with a glass/Teflon pestle motorized homogenizer. Gently vortexed test compounds were administered intragastrically (p.o.; 30 mg/kg or 3 mg/kg) at a dose volume of 3 ml per rat using an 18 gauge gavage needle. Urine volume (ml) was monitored and urine was collected for subsequent electrolyte analysis over a 6 hours period. […] Data are expressed as mean ±SEM; n=6 or 7.

Setting [2] is: p.o. 30 mg/kg in 0.5% Methocel, male Wistar rats, 6 hours, mean ± SEM, n=6 or 7.
[3] abbreviates: p.o. 3 mg/kg in 0.5% Methocel, male Wistar rats, 6 hours, mean ± SEM, n=6 or 7.

Regarding `NS(=O)(=O)c1cc2c(cc1Cl)NC(CC(=O)N(CCO[N+](=O)[O-])CCO[N+](=O)[O-])NS2(=O)=O` (centres unmarked) [Example 49e, 2H-1,2,4-Benzothiadiazine-3-acetamide, 7-(aminosulfonyl)-6-chloro-3,4-dihydro-N,N-bis[2-(nitrooxy)ethyl]-, 1,1-dioxide], the melting point was in the range of 94 to 97 °C. Moreover, the “Urine collected in 6 hours (mL) (3 mg/kg)” value (shortened to “Urine collected … (3 mg/kg)”) in data set [1] (rat, in vivo, po) is recorded as 2.5 ± 0.5 mL.

Compound `NS(=O)(=O)c1cc2c(cc1Cl)NC(CCCCCO[N+](=O)[O-])=NS2(=O)=O` [Example 20c, 4H-1,2,4-Benzothiadiazine-7-sulfonamide, 6-chloro-3-[5-(nitrooxy)pentyl]-, 1,1-dioxide] displayed a melting point of 170 to 172 °C. In addition, the “Urine collected in 6 hours (mL) (30 mg/kg)” value (shortened to “Urine collected … (30 mg/kg)”) in data set [1] (setting [2]) amounted to 3.0 ± 0.9 mL.

Turning to `NS(=O)(=O)c1cc2c(cc1C(F)(F)F)NC(c1cc(CO[N+](=O)[O-])cc(CO[N+](=O)[O-])c1)NS2(=O)=O` (centres unmarked) [Example 55, 2H-1,2,4-Benzothiadiazine-7-sulfonamide, 3-[3,5-bis[(nitrooxy)methyl]phenyl]-3,4-dihydro-6-(trifluoromethyl)-, 1,1-dioxide], the melting point was > 113 °C (dec.). In addition, in data set [1] (rat, in vivo, po), the “Urine collected … (3 mg/kg)” value is recorded as 3.3 ± 0.4 mL.

The compound `Cc1c(CN2CNc3cc(Cl)c(S(N)(=O)=O)cc3S2(=O)=O)no[n+]1[O-]` [Example 37c, 2H-1,2,4-Benzothiadiazine-7-sulfonamide, 6-chloro-3,4-dihydro-2-[(4-methyl-5-oxido-1,2,5-oxadiazol-3-yl)methyl]-, 1,1-dioxide] came in with a melting point of 235 to 237 °C. Also, the “Urine collected … (3 mg/kg)” value in data set [1] (setting [3]) is given as 2.1 ± 0.6 mL.

The compound `NS(=O)(=O)c1cc2c(cc1Cl)NC(CCC(CO[N+](=O)[O-])O[N+](=O)[O-])NS2(=O)=O` (centres unmarked) [Example 6b, 2H-1,2,4-Benzothiadiazine-7-sulfonamide, 3-[3,4-bis(nitrooxy)butyl]-6-chloro-3,4-dihydro-, 1,1-dioxide] had a melting point of 153 to 155 °C. In addition, the “Urine collected … (30 mg/kg)” value in data set [1] (rat, in vivo, po) was determined as 6.8 ± 0.5 mL.

Turning to `CC(C)(CO[N+](=O)[O-])C(=O)N1CCC2(CC1)Nc1cc(C(F)(F)F)c(S(N)(=O)=O)cc1S(=O)(=O)N2` [Example 19b, Spiro[2H-1,2,4-benzothiadiazine-3(4H), 4′-piperidine]-7-sulfonamide, 1′-[2,2-dimethyl-3-(nitrooxy)-1-oxopropyl]-6-(trifluoromethyl)-, 1,1-dioxide], the melting point was 152 to 156 °C (dec.). In addition, in data set [1] (setting [2]), the “Urine collected … (30 mg/kg)” value is recorded as 2.5 ± 0.4 mL.

`NS(=O)(=O)c1cc2c(cc1Cl)NCN(CCCOc1cc(CO[N+](=O)[O-])cc(CO[N+](=O)[O-])c1)S2(=O)=O` [Example 70c, 2H-1,2,4-Benzothiadiazine-7-sulfonamide, 2-[3-[3,5-bis[(nitrooxy)methyl]phenoxy]propyl]-6-chloro-3,4-dihydro-, 1,1-dioxide] had a melting point of 70 to 72 °C. Moreover, the “Urine collected … (3 mg/kg)” value in data set [1] (rat, in vivo, po) worked out at 3.3 ± 0.4 mL.

On to `NS(=O)(=O)c1cc2c(cc1Cl)NCN(CCO)S2(=O)=O` [Example 32b, 2H-1,2,4-Benzothiadiazine-7-sulfonamide, 6-chloro-3,4-dihydro-2-(2-hydroxyethyl)-, 1,1-dioxide], for which the melting point fell in the range of 226 to 228 °C. Besides, the “Urine collected … (3 mg/kg)” value in data set [1] (setting [3]) was found to be 5.1 ± 0.2 mL.

Regarding `CC1(C)CC(CC2Nc3cc(Cl)c(S(N)(=O)=O)cc3S(=O)(=O)N2)CC(C)(C)N1O` (centres unmarked) [Example 77, 2H-1,2,4-Benzothiadiazine-7-sulfonamide, 6-chloro-3,4-dihydro-3-[(1-hydroxy-2,2,6,6-tetramethyl-4-piperidinyl)methyl]-, 1,1-dioxide], the melting point lay within 174 to 176 °C. For the same compound, the “Urine collected … (3 mg/kg)” value in data set [1] (p.o. 3 mg/kg in 0.5% Methocel, male Wistar rats, 6 hours, mean ± SEM, n=6 or 7, 3 mg/kg) was 2.3 ± 0.4 mL.

Compound `NS(=O)(=O)c1cc2c(cc1Cl)N=C(NC(=O)CCCCO[N+](=O)[O-])NS2(=O)=O` [Example 4c, Pentanamide, N-[7-(aminosulfonyl)-6-chloro-1,1-dioxido-2H-1,2,4-benzothiadiazin-3-yl]-5-(nitrooxy)-] showed a melting point of 222 to 225 °C. For the same compound, the “Urine collected … (30 mg/kg)” value in data set [1] (setting [2]) is reported as 3.8 ± 0.7 mL.

Compound `CN(CCO[N+](=O)[O-])CC1Nc2cc(Cl)c(S(N)(=O)=O)cc2S(=O)(=O)N1` (centres unmarked) [Example 45, 2H-1,2,4-Benzothiadiazine-7-sulfonamide, 6-chloro-3,4-dihydro-3-[[methyl[2-(nitrooxy)ethyl]amino]methyl]-, 1,1-dioxide] had a melting point of 175 to 180 °C. In data set [1] (setting [3]), the “Urine collected … (3 mg/kg)” value came out at 4.8 ± 1.3 mL.

Regarding `NS(=O)(=O)c1cc2c(cc1Cl)NCN(CCCCOc1cc(CO[N+](=O)[O-])cc(CO[N+](=O)[O-])c1)S2(=O)=O` [Example 69b, 2H-1,2,4-Benzothiadiazine-7-sulfonamide, 2-[4-[3,5-bis[(nitrooxy)methyl]phenoxy]butyl]-6-chloro-3,4-dihydro-, 1,1-dioxide], the melting point was in the range of 65 to 67 °C. Besides, in data set [1] (rat, in vivo, po), the “Urine collected … (3 mg/kg)” value is 2.5 ± 0.5 mL.

`NS(=O)(=O)c1cc2c(cc1Cl)NC(CCCCCO)NS2(=O)=O` (centres unmarked) [Example 24c, 2H-1,2,4-Benzothiadiazine-7-sulfonamide, 6-chloro-3,4-dihydro-3-(5-hydroxypentyl)-, 1,1-dioxide] displayed a melting point of 190 °C. Also, in data set [1] (setting [3]), the “Urine collected … (3 mg/kg)” value is reported as 8.6 ± 0.4 mL. In data set [1] (setting [2]), the “Urine collected … (30 mg/kg)” value is on record as 7.2 ± 0.7 mL.

`NS(=O)(=O)c1cc2c(cc1Cl)NC(CCO[N+](=O)[O-])NS2(=O)=O` (centres unmarked) [Example 74b, 2H-1,2,4-Benzothiadiazine-7-sulfonamide, 6-chloro-3,4-dihydro-3-[2-(nitrooxy)ethyl]-, 1,1-dioxide] yielded a melting point of 113 to 117 °C.

Take `NS(=O)(=O)c1cc2c(cc1C(F)(F)F)NC1(CCN(C(=O)CCCCO[N+](=O)[O-])CC1)NS2(=O)=O` [Example 12c, Spiro[2H-1,2,4-benzothiadiazine-3(4H), 4′-piperidine]-7-sulfonamide, 1′-[5-(nitrooxy)-1-oxopentyl]-6-(trifluoromethyl)-, 1,1-dioxide]: the melting point is 178 °C (dec.).

As for `NS(=O)(=O)c1cc2c(cc1Cl)NC1(CCN(C(=O)CCCCO[N+](=O)[O-])CC1)NS2(=O)=O` [Example 18b, Spiro[2H-1,2,4-benzothiadiazine-3(4H), 4′-piperidine]-7-sulfonamide, 6-chloro-1′-[5-(nitrooxy)-1-oxopentyl]-, 1,1-dioxide], the melting point was 155 °C (dec.).

The compound `NS(=O)(=O)c1cc2c(cc1C(F)(F)F)NC(CCCCO[N+](=O)[O-])NS2(=O)=O` (centres unmarked) [Example 61b, 2H-1,2,4-Benzothiadiazine-7-sulfonamide, 3,4-dihydro-3-[4-(nitrooxy)butyl]-6-(trifluoromethyl)-, 1,1-dioxide] came in with a melting point of 171 to 177 °C.

`NS(=O)(=O)c1cc2c(cc1Cl)NC(Cc1ccc(CO[N+](=O)[O-])cc1)=NS2(=O)=O` [Example 29d, 4H-1,2,4-Benzothiadiazine-7-sulfonamide, 6-chloro-3-[[4-[(nitrooxy)methyl]phenyl]methyl]-, 1,1-dioxide]: the melting point is more than 260 °C.

In turn, `NS(=O)(=O)c1cc2c(cc1Cl)NCN(CCCCCCO)S2(=O)=O` [Example 66, 2H-1,2,4-Benzothiadiazine-7-sulfonamide, 6-chloro-3,4-dihydro-2-(6-hydroxyhexyl)-, 1,1-dioxide] showed a melting point of 176 to 179 °C.

As for `NS(=O)(=O)c1cc2c(cc1C(F)(F)F)NC(CCCCCO)NS2(=O)=O` (centres unmarked) [Example 25b, 2H-1,2,4-Benzothiadiazine-7-sulfonamide, 3,4-dihydro-3-(5-hydroxypentyl)-6-(trifluoromethyl)-, 1,1-dioxide], the melting point came out at 97 °C.

The compound `Cc1c(C2Nc3cc(C(F)(F)F)c(S(N)(=O)=O)cc3S(=O)(=O)N2)no[n+]1[O-]` (centres unmarked) (as salt: HCl) [Example 10, 2H-1,2,4-Benzothiadiazine-7-sulfonamide, 3,4-dihydro-3-(4-methyl-5-oxido-1,2,5-oxadiazol-3-yl)-6-(trifluoromethyl)-, 1,1-dioxide] showed a melting point of 160 °C.

With `NS(=O)(=O)c1cc2c(cc1Cl)NCN(CCCCCO)S2(=O)=O` [Example 60, 2H-1,2,4-Benzothiadiazine-7-sulfonamide, 6-chloro-3,4-dihydro-2-(5-hydroxypentyl)-, 1,1-dioxide], the melting point was 177 to 179 °C.

The compound `NS(=O)(=O)c1cc2c(cc1Cl)NC(CCc1cc(CO)cc(CO)c1)NS2(=O)=O` (centres unmarked) [Example 79d, 2H-1,2,4-Benzothiadiazine-7-sulfonamide, 3-[2-[3,5-bis(hydroxymethyl)phenyl]ethyl]-6-chloro-3,4-dihydro-, 1,1-dioxide] yielded a melting point of 218 °C.

Take `NS(=O)(=O)c1cc2c(cc1Cl)N=C(NC(=O)CCCCCO[N+](=O)[O-])NS2(=O)=O` (as salt: hydrochloride) [Example 5b, Hexanamide, N-[7-(aminosulfonyl)-6-chloro-1,1-dioxido-2H-1,2,4-benzothiadiazin-3-yl]-6-(nitrooxy)-]: the melting point was in the range of 177 to 179 °C.

The term melting point denotes the temperature of the solid-liquid transition.

Source of the values: patent US7595313B2, “Nitric oxide donating diuretic compounds, compositions and methods of use” (NicOx, S.A., priority 2005, dated 2009).
